Reference: patent US9745291B2, “PRMT5 inhibitors containing a dihydro- or tetrahydroisoquinoline and uses thereof” (Epizyme, Inc., priority 2012, dated 2017)
pEC50, pIC50: −log10 of the molar value.

Legend:
[1] = system: symmetric di-methyl arginine in Z-138 cells; experiment: Z-138 Methylation Assay (In Cell Western for symmetric di-methyl arginine and DNA content); assay type: cell-based; conditions: Homo sapiens, Z-138, Z-138 cells, read-out: ICW EC50
Description: [formula] Where top and bottom are the normally allowed to float, but may be fixed at 100 or 0 respectively in a 3-parameter fit. The Hill Coefficient normally allowed to float but may also be fixed at 1 in a 3-parameter fit. Y is the % inhibition and X is the compound concentration. Z-138 Methylation Assay
Z-138 suspension cells were purchased from ATCC (American Type Culture Collection, Manassas, Va.). RPMI/Glutamax medium, penicillin-streptomycin, heat inactivated fetal bovine serum, and D-PBS were purchased from Life Technologies, Grand Island, N.Y., USA. Odyssey blocking buffer, 800CW goat anti-rabbit IgG (H+L) antibody, and Licor Odyssey infrared scanner were purchased from Licor Biosciences, Lincoln, Nebr., USA. Symmetric di-methyl arginine antibody was purchased from EMD Millipore, Billerica, Mass., USA. 16% Paraformaldehyde was purchased from Electron Microscopy Sciences, Hatfield, Pa., USA.
Z-138 suspension cells were maintained in growth medium (RPMI 1640 supplemented with 10% v/v heat inactivated fetal bovine serum and 100 units/mL penicillin-streptomycin) and cultured at 37° C. under 5% CO2.
Cell Treatment, in Cell Western (ICW) for Detection of Symmetric Di-Methyl Arginine and DNA Content.
Z-138 cells were seeded in assay medium at a concentration of 50,000 cells per mL to a 384-well cell culture plate with 50 μL per well. Compound (100 nL) from 384 well source plates was added directly to 384 well cell plate. Plates were incubated at 37° C., 5% CO2 for 96 hours. After four days of incubation, 40 μL of cells from incubated plates were added to poly-D-lysine coated 384 well culture plates (BD Biosciences 356697). Plates were incubated at room temperature for 30 minutes then incubated at 37° C., 5% CO2 for 5 hours. After the incubation, 40 μL per well of 8% paraformaldehyde in PBS (16% paraformaldahyde was diluted to 8% in PBS) was added to each plate and incubated for 30 minutes. Plates were transferred to a Biotek 405 plate washer and washed 5 times with 100 μL per well of wash buffer (1×PBS with 0.1% Triton X-100 (v/v)). Next 30 μL per well of Odyssey blocking buffer were added to each plate and incubated 1 hour at room temperature. Blocking buffer was removed and 20 μL per well of primary antibody was added (symmetric di-methyl arginine diluted 1:100 in Odyssey buffer with 0.1% Tween 20 (v/v)) and plates were incubated overnight (16 hours) at 4° C. Plates were washed 5 times with 100 μL per well of wash buffer. Next 20 μL per well of secondary antibody was added (1:200 800CW goat anti-rabbit IgG (H+L) antibody, 1:1000 DRAQ5 (Biostatus limited) in Odyssey buffer with 0.1% Tween 20 (v/v)) and incubated for 1 hour at room temperature. The plates were washed 5 times with 100 μL per well wash buffer then 1 time with 100 μL per well of water. Plates were allowed to dry at room temperature then imaged on the Licor Odyssey machine which measures integrated intensity at 700 nm and 800 nm wavelengths. Both 700 and 800 channels were scanned.
First, the ratio for each well was determined by:
Each plate included fourteen control wells of DMSO only treatment (minimum inhibition) as well as fourteen control wells for maximum inhibition treated with 3 μM of a reference compound (Background wells). The average of the ratio values for each control type was calculated and used to determine the percent inhibition for each test well in the plate. Reference compound was serially diluted three-fold in DMSO for a total of nine test concentrations, beginning at 3 μM. Percent inhibition was determined and IC50 curves were generated using triplicate wells per concentration of compound. […]

[2] = system: Z-138 cell line; experiment: Z-138 Proliferation Assay (Cell Titer Glo, 5 days); assay type: cell-based; conditions: Homo sapiens, Z-138, 120 h, Z-138 cells
Description: [formula] Z-138 Proliferation Assay
Z-138 suspension cells were purchased from ATCC (American Type Culture Collection, Manassas, Va.). RPMI/Glutamax medium, penicillin-streptomycin, heat inactivated fetal bovine serum were purchased from Life Technologies, Grand Island, N.Y., USA. V-bottom polypropylene 384-well plates were purchased from Greiner Bio-One, Monroe, N.C., USA. Cell culture 384-well white opaque plates were purchased from Perkin Elmer, Waltham, Mass., USA. Cell-Titer Glo® was purchased from Promega Corporation, Madison, Wis., USA. SpectraMax M5 plate reader was purchased from Molecular Devices LLC, Sunnyvale, Calif., USA.
Z-138 suspension cells were maintained in growth medium (RPMI 1640 supplemented with 10% v/v heat inactivated fetal bovine serum and cultured at 37° C. under 5% CO2 Under assay conditions, cells were incubated in assay medium (RPMI 1640 supplemented with 10% v/v heat inactivated fetal bovine serum and 100 units/mL penicillin-streptomycin) at 37° C. under 5% CO2.
For the assessment of the effect of compounds on the proliferation of the Z-138 cell line, exponentially growing cells were plated in 384-well white opaque plates at a density of 10,000 cells/ml in a final volume of 50 μl of assay medium. A compound source plate was prepared by performing triplicate nine-point 3-fold serial dilutions in DMSO, beginning at 10 mM (final top concentration of compound in the assay was 20 μM and the DMSO was 0.2%). A 100 nL aliquot from the compound stock plate was added to its respective well in the cell plate. […] After addition of compounds, assay plates were incubated for 5 days at 37° C., 5% CO2, relative humidity >90%.
Cell viability was measured by quantitation of ATP present in the cell cultures, adding 35 μl of Cell Titer Glo® reagent to the cell plates. Luminescence was read in the SpectraMax M5 microplate reader. The concentration of compound inhibiting cell viability by 50% was determined using a 4-parametric fit of the normalized dose response curves.

[3] = molecular target: PRMT5/MEP50 (Homo sapiens (Human), UniProt O14744); experiment: PRMT5 Biochemical Assay (PRMT5/MEP50 enzyme assay on peptide substrate, 3H-SAM Flashplate); conditions: PRMT5 biochemical assay; read-out: Biochemical IC50
PRMT5/MEP50, sequence (O14744 other isoform, or with tags, fused parts or gaps): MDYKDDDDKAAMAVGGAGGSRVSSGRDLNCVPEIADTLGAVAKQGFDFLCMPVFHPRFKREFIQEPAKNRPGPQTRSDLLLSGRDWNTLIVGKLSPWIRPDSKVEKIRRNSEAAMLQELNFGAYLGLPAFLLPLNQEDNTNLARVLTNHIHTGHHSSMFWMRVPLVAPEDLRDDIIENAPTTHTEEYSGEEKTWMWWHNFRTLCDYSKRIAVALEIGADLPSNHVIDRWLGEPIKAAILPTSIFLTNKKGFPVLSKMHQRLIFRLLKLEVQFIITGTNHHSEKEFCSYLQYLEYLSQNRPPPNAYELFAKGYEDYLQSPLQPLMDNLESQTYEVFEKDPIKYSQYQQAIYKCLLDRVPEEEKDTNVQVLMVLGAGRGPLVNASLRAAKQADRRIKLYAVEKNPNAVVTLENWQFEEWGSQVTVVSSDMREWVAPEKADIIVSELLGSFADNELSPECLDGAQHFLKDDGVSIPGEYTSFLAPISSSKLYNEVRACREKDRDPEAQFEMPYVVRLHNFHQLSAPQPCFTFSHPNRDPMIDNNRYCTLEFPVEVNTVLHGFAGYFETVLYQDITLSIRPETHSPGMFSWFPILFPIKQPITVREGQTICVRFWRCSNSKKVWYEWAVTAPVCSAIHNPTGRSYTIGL
PRMT5/MEP50, sequence (Q9BQA1 other isoform, or with tags, fused parts or gaps partner): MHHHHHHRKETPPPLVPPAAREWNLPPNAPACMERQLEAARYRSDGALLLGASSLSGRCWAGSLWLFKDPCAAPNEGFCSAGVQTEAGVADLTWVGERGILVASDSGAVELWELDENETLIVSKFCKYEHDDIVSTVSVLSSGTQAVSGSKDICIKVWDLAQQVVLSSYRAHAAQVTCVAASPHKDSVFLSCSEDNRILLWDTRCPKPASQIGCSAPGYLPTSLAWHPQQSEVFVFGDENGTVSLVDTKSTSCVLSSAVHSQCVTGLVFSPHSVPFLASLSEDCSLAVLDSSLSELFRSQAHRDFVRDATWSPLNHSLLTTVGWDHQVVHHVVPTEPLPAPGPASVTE

Row | Compound | pEC50 [1] | pEC50 [2] | pIC50 [3]
1 | Cc1ccc2[nH]c(CCC(=O)NC[C@H](O)CN3CCc4ccccc4C3)nc2c1 [Compound 224] | > 7.00 | 5.00 to 6.00 | > 7.00
2 | O=C(CCc1nc2cc(F)ccc2[nH]1)NC[C@H](O)CN1CCc2ccccc2C1 [Compound 225] | > 7.00 | 6.00 to 7.00 | > 7.00
3 | O=C(CCc1nc2cc(Cl)ccc2[nH]1)NC[C@H](O)CN1CCc2ccccc2C1 [Compound 226] | > 7.00 | 6.00 to 7.00 | > 7.00
4 | O=C(CCc1nc2c(Cl)cccc2[nH]1)NC[C@H](O)CN1CCc2ccccc2C1 [Compound 227] | > 7.00 | 6.00 to 7.00 | > 7.00
5 | CN(C[C@H](O)CN1CCc2ccccc2C1)C(=O)CCc1nc2ccccc2[nH]1 [Compound 228] | > 7.00 | 6.00 to 7.00 | > 7.00
6 | O=C(CCc1cn2ccccc2n1)NC[C@H](O)CN1CCc2ccccc2C1 [Compound 229] | 6.00 to 7.00 | 4.30 to 5.00 | 6.00 to 7.00
7 | Cn1cncc1CCNC(=O)c1cccc(OCC(=O)NC[C@@H](O)CN2CCc3ccccc3C2)c1 [Compound 231] | < 6.00 | < 4.70 | 6.00 to 7.00
8 | CN(CC1CNC1)S(=O)(=O)c1ccccc1OCC(=O)NC[C@@H](O)CN1CCc2ccccc2C1 [Compound 232] | > 7.00 | 5.00 to 6.00 | > 7.00
9 | Cn1cnc(-c2cccc(OCC(=O)NC[C@@H](O)CN3CCc4ccccc4C3)c2)c1 [Compound 234] | < 6.00 | < 4.70 | 6.00 to 7.00
10 | O=C(COc1ccccc1[C@@H]1CCCCN1)NC[C@@H](O)CN1CCc2ccccc2C1 [Compound 236] | < 6.00 | 4.30 to 5.00 | 6.00 to 7.00
11 | O=C(COc1ccccc1C1CNCC(O)C1)NC[C@@H](O)CN1CCc2ccccc2C1 (stereo partly drawn) [Compound 237] | < 6.00 | < 4.70 | 6.00 to 7.00
12 | CN1CCC(CN(C)S(=O)(=O)c2ccccc2OCC(=O)NC[C@@H](O)CN2CCc3ccccc3C2)C1 (stereo partly drawn) [Compound 238] | > 7.00 | 6.00 to 7.00 | > 7.00
13 | O=C(CNc1nc2ccccc2[nH]1)NC[C@H](O)CN1CCc2ccccc2C1 [Compound 239] | > 7.00 | 5.00 to 6.00 | > 7.00
14 | O=C(CCc1ncc[nH]1)NC[C@H](O)CN1CCc2ccccc2C1 [Compound 240] | 6.00 to 7.00 | 4.30 to 5.00 | 6.00 to 7.00
15 | O=C(CCc1nc2c(F)cccc2[nH]1)NC[C@H](O)CN1CCc2ccccc2C1 [Compound 241] | > 7.00 | 6.00 to 7.00 | > 7.00
16 | COc1cccc2[nH]c(CCC(=O)NC[C@H](O)CN3CCc4ccccc4C3)nc12 [Compound 242] | > 7.00 | 5.00 to 6.00 | > 7.00
17 | O=C(CCc1nc(-c2ccccc2)c[nH]1)NC[C@H](O)CN1CCc2ccccc2C1 [Compound 243] | > 7.00 | 5.00 to 6.00 | > 7.00
18 | COCCNCCNC(=O)c1cccc(OCC(=O)NC[C@@H](O)CN2CCc3ccccc3C2)c1 [Compound 244] | < 6.00 | < 4.70 | > 7.00
